Results on 22 compounds are retold here after US11084800B2 (Achillion Pharmaceuticals, Inc., priority 2017, dated 2021).

Human Factor D, sequence (P00746 26-253): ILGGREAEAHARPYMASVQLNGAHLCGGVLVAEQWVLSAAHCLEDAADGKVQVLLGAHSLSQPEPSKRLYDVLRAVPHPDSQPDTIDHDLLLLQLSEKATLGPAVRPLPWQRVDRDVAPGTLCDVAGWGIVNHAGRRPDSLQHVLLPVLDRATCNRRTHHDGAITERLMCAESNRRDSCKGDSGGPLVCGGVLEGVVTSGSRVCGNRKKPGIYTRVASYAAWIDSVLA

The experiment deals with Human Factor D (Homo sapiens (Human), UniProt P00746). Description: Human Factor D Assay. Format: biochemical. To be noted: Table 6; Factor D 80 nM, substrate Z-L-Lys-SBz; read-out: IC50. Summed up:
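Thioester substrate Z-L-Lys-SBz (100 μM) with Ellman's reagent DTNB (100 μM) reports activity of 80 nM human serum-derived enzyme, kinetically at 405 nm over 30 min. Compound preincubated 5 min, room temperature, pH 7.5 Tris/1 M NaCl; IC50 by nonlinear fit of rates.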
Take `COCc1ccc(Br)nc1NC(=O)[C@@H]1C[C@@]2(CNC(=O)[C@@H](NC(=O)OC)C(C)C)C[C@H]2N1C(=O)Cn1nc(C(C)=O)c2cc(-c3cnc(C)nc3)ccc21` [Compound 153, Methyl ((S)-1-((((1R,3S,5R)-2-(2-(3-acetyl-5-(2-methylpyrimidin-5-yl)-1H-indazol-1-yl)acetyl)-3-((6-bromo-3-(methoxymethyl)pyridin-2-yl)carbamoyl)-2-azabicyclo[3.1.0]hexan-5-yl)methyl)amino)-3-methyl-1-oxobutan-2-yl)carbamate]: the IC50 is less than 1 µM.

On to `C=CCOC[C@@]12C[C@@H](C(=O)Nc3nc(Br)ccc3C)N(C(=O)Cn3nc(C(C)=O)c4cc(-c5cnc(C)nc5)cc(CC=C)c43)[C@@H]1C2` [Compound 154, (1R,3S,5S)-2-(2-(3-acetyl-7-allyl-5-(2-methylpyrimidin-5-yl)-1H-indazol-1-yl)acetyl)-5-((allyloxy)methyl)-N-(6-bromo-3-methylpyridin-2-yl)-2-azabicyclo[3.1.0]hexane-3-carboxamide], for which the IC50 is less than 1 µM. Turning to `CC(=O)c1nn(CC(=O)N2[C@H](C(=O)Nc3nc(Br)ccc3C)C[C@@]3(CN(C)C)C[C@@H]23)c2ccc(-c3cnc(C)nc3)c(F)c12` [Compound 155, (1R,3S,5R)-2-(2-(3-Acetyl-4-fluoro-5-(2-methylpyrimidin-5-yl)-1H-indazol-1-yl)acetyl)-N-(6-bromo-3-methylpyridin-2-yl)-5-((dimethylamino)methyl)-2-azabicyclo[3.1.0]hexane-3-carboxamide], the IC50 is less than 1 µM.

As for `CC(=O)c1nn(CC(=O)N2[C@H]3C[C@@]3(CN(C)C)C[C@H]2C(=O)Nc2nc(Br)ccc2C)c2ccc(-c3cnc(C)nc3)c(F)c12` [Compound 156, (1S,3S,5S)-2-(2-(3-Acetyl-4-fluoro-5-(2-methylpyrimidin-5-yl)-1H-indazol-1-yl)acetyl)-N-(6-bromo-3-methylpyridin-2-yl)-5-((dimethylamino)methyl)-2-azabicyclo[3.1.0]hexane-3-carboxamide], the IC50 is greater than 10 µM. As for `CC(=O)c1nn(CC(=O)N2[C@H](C(=O)Nc3nc(Br)ccc3C)C[C@@]3(COCCN(C)C)C[C@@H]23)c2ccc(-c3cnc(C)nc3)cc12` [Compound 157], the IC50 is less than 1 µM. For the compound `CC(=O)c1nn(CC(=O)N2C[C@H]3C[C@H]3[C@H]2C(=O)Nc2nc(Br)c(F)cc2C)c2cnc(-c3cnc(C)nc3)cc12` [Compound 172, (1R,2S,5S)-3-(2-(3-Acetyl-5-(2-methylpyrimidin-5-yl)-1H-pyrazolo[3,4-c]pyridin-1-yl)acetyl)-N-(6-bromo-5-fluoro-3-methylpyridin-2-yl)-3-azabicyclo[3.1.0]hexane-2-carboxamide], the IC50 was less than 1 µM. Regarding `CC(=O)c1nn(CC(=O)N2[C@H](C(=O)Nc3nc(Br)ccc3C)C[C@@]3(C(N)=O)C[C@@H]23)c2c(C)cc(-c3cnc(C)nc3)cc12` [Compound 173, (1R,3S,5S)-2-(2-(3-acetyl-7-methyl-5-(2-methylpyrimidin-5-yl)-1H-indazol-1-yl)acetyl)-N3-(6-bromo-3-methylpyridin-2-yl)-2-azabicyclo[3 .1.0]hexane-3,5-dicarboxamide], the IC50 is greater than 10 µM. Then `CC(=O)c1nn(CC(=O)N2[C@H](C(=O)Nc3nc(Br)ccc3C)C[C@@]3(C#N)C[C@@H]23)c2c(C)cc(-c3cnc(C)nc3)cc12` [Compound 174, (1R,3S,5S)-2-(2-(3-acetyl-7-methyl-5-(2-methylpyrimidin-5-yl)-1H-indazol-1-yl)acetyl)-N-(6-bromo-3-methylpyridin-2-yl)-5-cyano-2-azabicyclo[3.1.0]hexane-3-carboxamide], with greater than 10 µM; and `CC(=O)c1nn(CC(=O)N2C[C@@H](C(F)(F)F)C[C@H]2C(=O)Nc2nc(Br)ccc2C)c2c(C)cc(-c3cnc(C)nc3)cc12` [Compound 175], with less than 1 µM.

Consider `CC(=O)c1nn(CC(=O)N2[C@H](C(=O)Nc3nc(Br)ccc3C)C[C@@]3(CN(CCF)CCF)C[C@@H]23)c2c(C)cc(-c3cnc(C)nc3)cc12` [Compound 176], for which the IC50 is less than 1 µM.

With `CC(=O)c1nn(CC(=O)N2[C@H](C(=O)Nc3nc(Br)ccc3CN3CC(F)(F)C3)C[C@@]3(C)C[C@@H]23)c2ccc(-c3cnc(C)nc3)cc12` [Compound 177, (1R,3S,5R)-2-(2-(3-Acetyl-5-(2-methylpyrimidin-5-yl)-1H-indazol-1-yl)acetyl)-N-(6-bromo-3-((3,3-difluoroazetidin-1-yl)methyl)pyridin-2-yl)-5-methyl-2-azabicyclo[3.1.0]hexane-3-carboxamide], the IC50 is less than 1 µM.

Consider `CC(=O)c1nn(CC(=O)N2[C@H](C(=O)Nc3nc(Br)c(F)cc3C)C[C@@]3(C)C[C@@H]23)c2ccc(-c3cnc(C)nc3)cc12` [Compound 178, (1R,3S,5R)-2-(2-(3-Acetyl-5-(2-methylpyrimidin-5-yl)-1H-indazol-1-yl)acetyl)-N-(6-bromo-5-fluoro-3-methylpyridin-2-yl)-5-methyl-2-azabicyclo[3.1.0]hexane-3-carboxamide], for which the IC50 was less than 1 µM. On to `CC(=O)c1nn(CC(=O)N2[C@H](C(=O)Nc3nc(Br)ccc3C)C[C@@]3(C)C[C@@H]23)c2ccc(-c3cnc4cc(C)nn4c3)cc12` [Compound 180, (1R,3S,5R)-2-(2-(3-Acetyl-5-(2-methylpyrazolo[1,5-a]pyrimidin-6-yl)-1H-indazol-1-yl)acetyl)-N-(6-bromo-3-methylpyridin-2-yl)-5-methyl-2-azabicyclo[3.1.0]hexane-3-carboxamide], for which the IC50 was less than 1 µM. For `CC(=O)c1nn(CC(=O)N2[C@H](C(=O)Nc3nc(Br)c(F)cc3C)C[C@@]3(C)C[C@@H]23)c2ncc(-c3cnc(C)nc3)cc12` [Compound 182, (1R,3S,5R)-2-(2-(3-Acetyl-5-(2-methylpyrimidin-5-yl)-1H-pyrazolo[3,4-b]pyridin-1-yl)acetyl)-N-(6-bromo-5-fluoro-3-methylpyridin-2-yl)-5-methyl-2-azabicyclo[3.1.0]hexane-3-carboxamide] the value was less than 1 µM; for `CC(=O)c1nn(CC(=O)N2C[C@H]3C[C@H]3[C@H]2C(=O)Nc2nc(Br)ccc2C)c2ncc(-c3cnc(C)nc3)cc12` [Compound 183, (1R,2S,5S)-3-(2-(3-Acetyl-5-(2-methylpyrimidin-5-yl)-1H-pyrazolo[3,4-b]pyridin-1-yl)acetyl)-N-(6-bromo-3-methylpyridin-2-yl)-3-azabicyclo[3.1.0]hexane-2-carboxamide], less than 1 µM; for `CC(=O)c1nn(CC(=O)N2[C@H](C(=O)Nc3nc(Br)ccc3C)C[C@@]3(C)C[C@@H]23)c2ccc(-c3cnc(C)nc3)nc12` [Compound 184, (1R,3S,5R)-2-(2-(3-Acetyl-5-(2-methylpyrimidin-5-yl)-1H-pyrazolo[4,3-b]pyridin-1-yl)acetyl)-N-(6-bromo-3-methylpyridin-2-yl)-5-methyl-2-azabicyclo[3.1.0]hexane-3-carboxamide], 1 to 10 µM.

On to `CC(=O)c1nn(CC(=O)N2[C@H](C(=O)Nc3nc(Br)c(F)cc3C)C[C@@]3(C)C[C@@H]23)c2ccc(-c3cnc(C)nc3)nc12` [Compound 185, (1R,3S,5R)-2-(2-(3-Acetyl-5-(2-methylpyrimidin-5-yl)-1H-pyrazolo[4,3-b]pyridin-1-yl)acetyl)-N-(6-bromo-5-fluoro-3-methylpyridin-2-yl)-5-methyl-2-azabicyclo[3.1.0]hexane-3-carboxamide], for which the IC50 is 1 to 10 µM. With `CC(=O)c1nn(CC(=O)N2[C@H](C(=O)Nc3nc(Br)cc(C)c3C(F)F)C[C@@]3(C)C[C@@H]23)c2ccc(-c3cnc(C)nc3)cc12` [Compound 187, (1R,3S,5R)-2-(2-(3-Acetyl-5-(2-methylpyrimidin-5-yl)-1H-indazol-1-yl)acetyl)-N-(6-bromo-3-(difluoromethyl)-4-methylpyridin-2-yl)-5-methyl-2-azabicyclo[3.1.0]hexane-3-carboxamide], the IC50 was less than 1 µM.

Regarding `C=CCCS(=O)(=O)N(C)C[C@@]12C[C@@H](C(=O)Nc3nc(Br)ccc3C=C)N(C(=O)Cn3nc(C(C)=O)c4cc(-c5cnc(C)nc5)ccc43)[C@@H]1C2` [Compound 188, (1R,3S,5R)-2-(2-(3-Acetyl-5-(2-methylpyrimidin-5-yl)-1H-indazol-1-yl)acetyl)-N-(6-bromo-3-vinylpyridin-2-yl)-5-((N-methylbut-3-en-1-ylsulfonamido)methyl)-2-azabicyclo[3.1.0]hexane-3-carboxamide], the IC50 is less than 1 µM. For `CC(=O)c1nn(CC(=O)N2[C@H](C(=O)Nc3nc(Br)ccc3CN3CCOCC3)C[C@@]3(C)C[C@@H]23)c2cnc(-c3cnc(C)nc3)cc12` [Compound 192, (1R,3S,5R)-2-(2-(3-Acetyl-5-(2-methylpyrimidin-5-yl)-1H-pyrazolo[3,4-c]pyridin-1-yl)acetyl)-N-(6-bromo-3-(morpholinomethyl)pyridin-2-yl)-5-methyl-2-azabicyclo[3.1.0]hexane-3-carboxamide] the value was less than 1 µM. Then `COc1ncc(-c2cc3c(C(C)=O)nn(CC(=O)N4[C@H](C(=O)Nc5nc(Br)ccc5C)C[C@@]5(C)C[C@@H]45)c3cn2)cn1` [Compound 193, (1R,3S,5R)-2-(2-(3-Acetyl-5-(2-methoxypyrimidin-5-yl)-1H-pyrazolo[3,4-c]pyridin-1-yl)acetyl)-N-(6-bromo-3-methylpyridin-2-yl)-5-methyl-2-azabicyclo[3.1.0]hexane-3-carboxamide], with less than 1 µM; and `CC(=O)c1nn(CC(=O)N2[C@H](C(=O)Nc3nc(Br)ccc3C)C[C@@]3(C)C[C@@H]23)c2cnc(-c3cnc(N)nc3)cc12` [Compound 194, (1R,3S,5R)-2-(2-(3-Acetyl-5-(2-aminopyrimidin-5-yl)-1H-pyrazolo[3,4-c]pyridin-1-yl)acetyl)-N-(6-bromo-3-methylpyridin-2-yl)-5-methyl-2-azabicyclo[3.1.0]hexane-3-carboxamide], with less than 1 µM.
